Results reported in PMC8421423, “Cellular model system to dissect the isoform-selectivity of Akt inhibitors” (Nature Communications, 2021).
Values joined by “and” are separate entries in the source; they are usually repeats but may differ in a detail not shown here. Equal entries are not always repeated. Where two headings read alike, the source gives them in different places.

Key:
Ba/F3^myr-Akt1 cells = assay: CellTiter-Glo cell viability assay; conditions: for Log ratio EC50 [Akt] / EC50 [Akt], Akt1 / Akt2: cell viability assay Ba/F3 myr-Akt cells, log units
Akt3 = Akt3 (Homo sapiens, UniProt Q9Y243); assay: STK HTRF KinEASE activity-based assay (IC50)
Akt3, sequence (Q9Y243 whole entry): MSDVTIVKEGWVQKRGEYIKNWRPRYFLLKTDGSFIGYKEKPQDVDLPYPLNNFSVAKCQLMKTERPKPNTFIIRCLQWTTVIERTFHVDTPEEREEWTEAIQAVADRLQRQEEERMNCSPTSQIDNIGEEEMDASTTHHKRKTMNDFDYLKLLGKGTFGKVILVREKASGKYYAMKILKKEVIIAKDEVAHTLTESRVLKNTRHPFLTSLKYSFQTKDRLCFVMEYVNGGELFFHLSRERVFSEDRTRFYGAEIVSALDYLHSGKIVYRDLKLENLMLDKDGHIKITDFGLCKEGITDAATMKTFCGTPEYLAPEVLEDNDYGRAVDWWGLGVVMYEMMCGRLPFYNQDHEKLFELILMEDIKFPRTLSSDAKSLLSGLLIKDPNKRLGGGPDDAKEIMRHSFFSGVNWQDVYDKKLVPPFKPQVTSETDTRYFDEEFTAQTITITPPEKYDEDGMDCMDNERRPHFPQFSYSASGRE
Description: The biochemical half maximal inhibitory concentrations (IC50) were determined with the STK HTRF KinEASE assay (Cisbio) according to the manufactor’s instructions. Briefly: 5 µL Kinase solution and 2.5 µL inhibitor solution (8% DMSO in HTRF buffer) were incubated for 1 h before the reaction was started by addition of 2.5 µL starting solution containing ATP and substrate peptide. […] After reaction completion (Akt1: 60 min, Akt2: 20 min, Akt3: 15 min), 10 µL of stop solution were added. […] The quotient of both intensities were recorded at eight different inhibitor concentrations and data fit to a Hill 4-parameter equation with Quattro software suite (Quattro Research GmbH, Martinsried, Germany). Each reaction was performed in duplicates and at least three independent determinations of each IC50 were made.

Ba/F3^myr-Akt3 cells = assay: CellTiter-Glo cell viability assay; conditions: for Log ratio EC50 [Akt] / EC50 [Akt], Akt3 / Akt2: cell viability assay Ba/F3 myr-Akt cells, log units
Ba/F3^myr-Akt2 cells = assay: CellTiter-Glo cell viability assay
Akt2 = Akt2 (Homo sapiens, UniProt P31751); assay: STK HTRF KinEASE activity-based assay (IC50)
Akt2, sequence (P31751 whole entry): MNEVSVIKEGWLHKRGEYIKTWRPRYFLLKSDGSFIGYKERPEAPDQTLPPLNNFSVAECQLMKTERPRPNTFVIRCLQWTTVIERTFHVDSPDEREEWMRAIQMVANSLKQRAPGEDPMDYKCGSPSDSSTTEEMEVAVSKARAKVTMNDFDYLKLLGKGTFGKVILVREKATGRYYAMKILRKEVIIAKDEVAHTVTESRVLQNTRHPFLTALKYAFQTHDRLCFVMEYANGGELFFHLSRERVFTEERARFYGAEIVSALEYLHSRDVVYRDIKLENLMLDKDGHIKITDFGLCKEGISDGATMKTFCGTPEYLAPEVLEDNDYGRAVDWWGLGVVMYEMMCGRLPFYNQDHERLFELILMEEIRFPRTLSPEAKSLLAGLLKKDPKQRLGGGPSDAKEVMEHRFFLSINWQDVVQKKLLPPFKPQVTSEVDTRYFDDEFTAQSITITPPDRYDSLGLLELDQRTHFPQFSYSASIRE

Akt1 [1] = molecular target: Akt1 (Homo sapiens, UniProt P31749); assay: STK HTRF KinEASE activity-based assay (IC50); conditions: for Log ratio IC50 [Akt] / IC50 [Akt], Akt1 / Akt2: biochemical activity based assay, log units
Akt1 (Homo sapiens, UniProt P31749), sequence (P31749 whole entry): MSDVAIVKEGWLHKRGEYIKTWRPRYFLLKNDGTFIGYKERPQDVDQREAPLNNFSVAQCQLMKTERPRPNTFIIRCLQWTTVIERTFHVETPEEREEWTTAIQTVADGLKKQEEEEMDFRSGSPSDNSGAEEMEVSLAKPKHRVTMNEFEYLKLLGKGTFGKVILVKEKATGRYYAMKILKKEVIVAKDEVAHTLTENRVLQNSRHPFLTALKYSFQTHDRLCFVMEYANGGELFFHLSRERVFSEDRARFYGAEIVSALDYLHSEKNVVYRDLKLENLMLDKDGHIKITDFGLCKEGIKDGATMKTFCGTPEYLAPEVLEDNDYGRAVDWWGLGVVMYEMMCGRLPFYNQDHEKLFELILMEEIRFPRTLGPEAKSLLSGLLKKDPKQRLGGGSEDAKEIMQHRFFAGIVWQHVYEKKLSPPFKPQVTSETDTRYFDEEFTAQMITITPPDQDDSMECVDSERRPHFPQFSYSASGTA

Akt1 [2] = molecular target: T1, Akt1 (Homo sapiens, UniProt P31749, E114A/E115A/E116A); assay: ESI-MS/MS of tryptic digest (modified cysteine residues); type: binding; conditions: 5-fold molar excess of inhibitor
T1 construct: AKT1(2–446, E114/115/116A); His6 with TEV protease recognition site (N, cleaved yes); made in house; host or cells: Spodoptera frugiperda (Sf9)
T1 sequence (P31749 2-446 E114A/E115A/E116A): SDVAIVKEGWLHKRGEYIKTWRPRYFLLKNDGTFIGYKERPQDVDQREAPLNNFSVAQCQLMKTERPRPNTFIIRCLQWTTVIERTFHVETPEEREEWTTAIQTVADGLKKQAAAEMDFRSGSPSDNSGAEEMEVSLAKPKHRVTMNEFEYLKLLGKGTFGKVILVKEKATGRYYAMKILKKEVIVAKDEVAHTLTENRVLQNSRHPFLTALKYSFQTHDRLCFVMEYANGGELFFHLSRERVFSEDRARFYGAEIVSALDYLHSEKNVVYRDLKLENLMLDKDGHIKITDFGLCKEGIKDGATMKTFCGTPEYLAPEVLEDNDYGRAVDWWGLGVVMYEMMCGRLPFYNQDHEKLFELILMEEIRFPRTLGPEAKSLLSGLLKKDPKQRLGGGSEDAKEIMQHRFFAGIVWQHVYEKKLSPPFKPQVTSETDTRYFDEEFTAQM
Description: ESI-MS/MS samples were prepared as stated above followed by steps of reduction, alkylation, and tryptic digest. The digested samples were stage tip-purified using C18 tips and according to a protocol described elsewhere. Subsequently, samples were thawed, dissolved in 20 μL of 0.1% TFA in water, sonicated at room temperature for 15 min, and centrifuged at 15,000×g for 1 min shortly before analysis. In all, 3 μL of sample were loaded onto a pre-column cartridge and desalted for 5 min using 0.1% TFA in water as eluent at a flow rate of 30 μL/min. The samples were back-flushed from the pre-column to the nano-HPLC column during the whole analysis. Elution was performed using a gradient starting at 5% B with a final composition of 30% B after 35 min (flow rate 300 nL/min) using 0.1% formic acid in water as eluent A and 0.1% formic acid in acetonitrile as eluent B and a column temperature of 40 °C. […] During the complete gradient cycle, a typical TOP10 shot-gun proteomics method for the MS and MS/MS analysis was used. For full scan MS experiments a mass range of m/z 300–1650 was scanned with a resolution of 70000. MS/MS experiments were followed by up to 10 high energy collision dissociation (HCD) MS/MS scans with a resolution of 17,500 of the most intense at least doubly charged ions. Data evaluation was performed using MaxQuant[50]. Spectra were searched against the specific Akt sequence and a contamination database using a false discovery rate of 1% on peptide and protein level using a decoy database for determination of the false discovery rate. For database search oxidation of methionine and N-terminal acetylation of proteins, carbamidomethylation of cysteines, and artificial modification of cysteines were defined as variable modifications.

parental Ba/F3 cells = assay: CellTiter-Glo cell viability assay; type: cell-based, murine
[3] = Mus musculus, read-out: CTG BaF3myr-Akt1, Mean, mean of replicates
[4] = Mus musculus, read-out: CTG BaF3myr-Akt1, individual determinations, single replicates
[5] = read-out: CTG BaF3myr-Akt1, individual determinations, single replicates
[6] = IC50 Akt3, HTRF, ATP at KM, 1 h preincubation
[7] = Mus musculus, read-out: CTG BaF3myr-Akt3, individual determinations, single replicates
[8] = read-out: CTG BaF3myr-Akt3, individual determinations, single replicates
[9] = read-out: CTG BaF3myr-Akt2, individual determinations, single replicates
[10] = HTRF IC50 Akt2, individual determinations, single replicates
[11] = IC50 Akt2, HTRF, ATP at KM, 1 h preincubation
[12] = HTRF IC50 Akt1, Mean, mean of replicates
[13] = HTRF IC50 Akt1, individual determinations, single replicates
[14] = IC50 Akt1, HTRF, ATP at KM, 1 h preincubation
[15] = Mus musculus, BaF3, CTG, parental BaF3 cell line, read-out: EC50 BaF3
[16] = Mus musculus, BaF3, parental cells, mean of replicates, read-out: CTG BaF3, Mean
[17] = Mus musculus, BaF3, parental cells, single replicates, read-out: CTG BaF3, individual determinations
[18] = parental cells, single replicates, read-out: CTG BaF3, individual determinations

C=CC(=O)Nc1ccc2[nH]c(=O)n(C3CCN(Cc4ccc(-c5ncc(C(=O)NC)cc5-c5ccccc5)cc4)CC3)c2c1 [compound 6]
EC50 (Ba/F3^myr-Akt1 cells; [3]): 9.61 µM
EC50 (Ba/F3^myr-Akt1 cells; [4]): 7.7 µM
Log ratio EC50 [Akt] / EC50 [Akt], Akt1 / Akt2 (Ba/F3^myr-Akt1 cells): -0.05
EC50 (Ba/F3^myr-Akt1 cells; [5]): 11.7 µM and 9.47 µM
IC50 (Akt3; HTRF IC50 Akt3, Mean, mean of replicates): 5.75 µM
IC50 (Akt3; HTRF IC50 Akt3, individual determinations, single replicates): 5.69 µM and 3.89 µM and 7.68 µM
IC50 (Akt3; [6]): 5.75 ± 1.55 µM
EC50 (Ba/F3^myr-Akt3 cells; [7]): > 30 µM
Log ratio EC50 [Akt] / EC50 [Akt], Akt3 / Akt2 (Ba/F3^myr-Akt3 cells): -0.38
EC50 (Ba/F3^myr-Akt3 cells; [8]): 22.6 µM and 24.5 µM
EC50 (Ba/F3^myr-Akt2 cells; Mus musculus, read-out: CTG BaF3myr-Akt2, Mean, mean of replicates): 10.8 µM
EC50 (Ba/F3^myr-Akt2 cells; Mus musculus, read-out: CTG BaF3myr-Akt2, individual determinations, single replicates): 12.6 µM
EC50 (Ba/F3^myr-Akt2 cells; [9]): 7.18 µM and 12.6 µM
IC50 (Akt2; [10]): 84.1 nM and 151 nM and 88.6 nM
IC50 (Akt2; [11]): 108 ± 31 nM
loss of activity compared to the ester version (Akt1 [1]; Akt1, biochemical IC50): 4 fold
IC50 (Akt1 [1]; [12]): 112 nM
IC50 (Akt1 [1]; [13]): 113 nM and 133 nM and 90.9 nM
IC50 (Akt1 [1]; [14]): 112 ± 21 nM
Log ratio IC50 [Akt] / IC50 [Akt], Akt1 / Akt2 (Akt1 [1]): 0.02
modified cysteine residues in Akt1 (MS/MS) (Akt1 [2]): Cys296 and Cys310
EC50 (parental Ba/F3 cells; [15]): > 30 µM
EC50 (parental Ba/F3 cells; [16]): > 30 µM
EC50 (parental Ba/F3 cells; [17]): > 30 µM
EC50 (parental Ba/F3 cells; [18]): > 30 µM

C=CC(=O)Nc1ccc2[nH]c(=O)n(C3CCN(Cc4ccc(-c5ncc(CO)cc5-c5ccccc5)cc4)CC3)c2c1 [compound 3]
EC50 BaF3myr-Akt1 (Ba/F3^myr-Akt1 cells; CTG): generally inactive
EC50 (Ba/F3^myr-Akt1 cells; [3]): 28.3 µM
EC50 (Ba/F3^myr-Akt1 cells; [4]): 26.6 µM
Log ratio EC50 [Akt] / EC50 [Akt], Akt1 / Akt2 (Ba/F3^myr-Akt1 cells): 0.13
EC50 (Ba/F3^myr-Akt1 cells; [5]): 28.3 µM
IC50 (Akt3; [6]): > 20 µM
EC50 BaF3myr-Akt3 (Ba/F3^myr-Akt3 cells; CTG): generally inactive
EC50 (Ba/F3^myr-Akt3 cells; Mus musculus, read-out: CTG BaF3myr-Akt3, Mean, mean of replicates): > 30 µM
EC50 (Ba/F3^myr-Akt3 cells; [7]): > 30 µM
EC50 (Ba/F3^myr-Akt3 cells; Mus musculus, read-out: EC50 BaF3myr-Akt3, CTG): > 30 µM
Log ratio EC50 [Akt] / EC50 [Akt], Akt3 / Akt2 (Ba/F3^myr-Akt3 cells): -0.15
EC50 (Ba/F3^myr-Akt3 cells; [8]): > 30 µM
EC50 (Ba/F3^myr-Akt2 cells; [9]): 21.2 µM and 12.4 µM and > 30 µM
IC50 (Akt2; HTRF IC50 Akt2, Mean, mean of replicates): 961 nM
IC50 (Akt2; [10]): 1020 nM and 724 nM and 1140 nM
IC50 (Akt2; [11]): 961 ± 174 nM
IC50 (Akt1 [1]; [12]): 184 nM
IC50 (Akt1 [1]; [13]): 133 nM and 103 nM and 189 nM and 310 nM
IC50 (Akt1 [1]; [14]): 186 ± 79 nM
Log ratio IC50 [Akt] / IC50 [Akt], Akt1 / Akt2 (Akt1 [1]): -0.71
modified cysteine residues in Akt1 (MS/MS) (Akt1 [2]): Cys296 and Cys310
EC50 (parental Ba/F3 cells; [15]): > 30 µM
EC50 (parental Ba/F3 cells; [16]): > 30 µM
EC50 (parental Ba/F3 cells; [17]): > 30 µM
EC50 (parental Ba/F3 cells; [18]): > 30 µM
